Data as given in US20090239868A1 (priority 2007, published 2009).
“Also recorded” adds a separate entry of the source.

Assays:
[1] = system: TGF-β induced PAI-1 production; experiment: TGF-β induced PAI-1 production in HT1080 cells (Western blotting); assay type: cell-based; conditions: Homo sapiens, HT-1080, TGF-β1 10 ng/mL, 6-hours incubation
Method: After incubating HT1080 cells for 48 hours in the MEM medium containing 10% FBS (Fetal Bovine Serum), the medium was changed to a MEM medium containing 1% FBS, and TGF-β1 (final concentration: 10 ng/mL) only, or TGF-β1 (final concentration: 10 ng/mL) and the test substances were added and incubated. As a control, a culture solution without neither TGF-β1 nor the test substances was prepared. After 6-hours incubation, the culture fluids were collected, and the PAI-1 amounts in the culture fluids were measured by the Western blotting. The PAI-1 amount when TGF-β1 only was added being “100%,” and the PAI-1 amount in the control being “0%,” PAI-1 amounts at each concentration of the test substances (PAI-1 inhibition ratios) were calculated, and the concentrations of the compounds, which inhibited PAI-1 production to 50% (IC50) in amount, were obtained.

[2] = system: TGF-β induced PAI-1 production; experiment: TGF-β induced PAI-1 production in HepG2 cells (Human Serpin E1/PAI-1 DuoSet); assay type: cell-based
Method: HepG2 cells were seeded on a 96-well culture plate by 2×10^4 cells/well, and were incubated for 24 hours in the MEM medium containing 1% NEAA (Non-Essential Amino Acids), 1 mM pyruvate, and 10% FBS. Then, the medium was changed to a MEM medium containing 1% NEAA, 1 mM pyruvate and 1% FBS, and the cells were further incubated for 24 hours. Subsequently, after the medium was changed to a MEM medium containing 1% NEAA, 1 mM pyruvate and 1% FBS, and then the cells were treated with the test substances (final concentration: 1 μM or 0.1 μM) for one hour, TGF-β1 (final concentration: 1 ng/mL) was added and the cells were further incubated for 24 hours. As controls, a culture solution added TGF-β1 only, and a culture solution cultured without neither the test substances nor TGF-β1 were prepared. After the incubation, the PAI-1 amount was measured using Human Serpin E1/PAI-1 DuoSet (R&D Systems). The PAI-1 amount when treated with TGF-β1 only being “100%”, and the PAI-1 amount when treated without neither the test substances nor TGF-β1 being “0%”, the PAI-1 inhibition ratios of each test substance were calculated.

[3] = system: PAI-1 gene expression induced by PMA; conditions: J. Immunol., Vol. 165, pp. 3154-3161, 2000; cited from earlier work
PAI-1 [4] = experiment: PAI-1 concentration in plasma of type II diabetes patients with obesity (Human PAI-1 ELISA Kit); assay type: in vivo; conditions: 200 mg orally twice a day for 12 weeks, plasma at 2, 4, 8, 12 weeks, FIG. 1
Method: To 10 patients of the type II diabetes with obesity where PAI-1 overproduction was recognized, the compound (1) was administered orally 200 mg each time twice a day (after breakfast and after dinner) for 12 weeks. Blood was collected from each patient just before the administration of the compound (1) and 2, 4, 8, and 12 weeks later, and the PAI-1 concentration in plasma was measured using Human PAI-1 ELISA Kit (AssayPro).

PAI-1 [5] = experiment: Immunostaining of PAI-1 expression cells among cells infiltrated in the lung, cigarette smoke exposed guinea pigs; assay type: in vivo, guinea pig
Method: Using the smoking exposure system (INH06-CIGOIA, MIPS Inc.), 6-week old guinea pigs (Std: male Hartley, Japan SLC, Inc.) were exposed to smoke of 40 cigarettes (Peace (Registered Trademark), Japan Tobacco, Inc.) a day (20 cigarettes twice) for 25 continuous days (Chronic Obstructive Pulmonary Disease (COPD) model group: Control group: n=10). To these guinea pigs, from the day of exposure to the smoke of tobacco, the compound (1) (30 mg/kg/day or 100 mg/kg/day) or prednisolone (10 mg/kg/day) was continuously administered orally once a day for 25 days (Compound (1) 30 mg administered group: n=5, Compound (1) 100 mg administered group: n=5, Prednisolone administered group: n=5). Furthermore, as a normal group, guinea pigs (n=5) exposed to air without the administration of the compound (1) and prednisolone were prepared. On the following day of the last exposure, after preparing paraffin sections in the lungs of each guinea pig, collagen was stained by the Masson-trichrome method, and the accumulations of collagen in the alveoli were measured by the area rate with the image analysis.
Next, the above paraffin section was stained by the immunostaining method using an anti PAI-1 antibody (PAI-1H-135; Santa Cruz; 250-fold dilution), and the ratio of PAI-1 expression cells to the total cell numbers infiltrated in the lung was measured. […]

[6] = system: cardiac infarction (ischemia-reperfusion) model rats; experiment: Fibrosis ratio in left ventricle cardiac muscle, cardiac infarction (ischemia-reperfusion) model rats, Azan-Mallory stain; assay type: in vivo, rat; conditions: p.o., once a day for 28 days, control 7.5 ± 1.1
Method: After the 8-week old rats (SPF: male SD, Japan SLC, Inc.) were anesthetized with Pentobarbital Sodium, their hearts were exteriorized, and the left anterior descending coronary arteries (LAD) were ligated by a suture needle with a thread. 30 minutes later, the ligations were removed, and the blood was reperfused for 24 hours. After that, the compound (1) (10 mg/kg/day, 30 mg/kg/day, 100 mg/kg/day) was orally administered once a day for 28 continuous days. Moreover, as a control, rats to which the compound (1) was not administered after the reperfusion (cardiac infarction (ischemia-reperfusion) model rats) were prepared. On the 29th day after the reperfusion, after preparing paraffin sections of cardiac muscle in the left ventricle of each rat, Azan-Mallory stain was carried out, the ratios of the stained area occupying the myocardial necrosis distant sites were obtained as the ratios of fibrosis by the image analyses.

[7] = system: mustard oil infusion rats (cystitis rat); experiment: Bladder fibrosis score, mustard oil infusion rats (cystitis rat), Azan stain; assay type: in vivo; conditions: 100 mg/kg/day orally for 10 days; control 2.6±0.1; p<0.01 Wilcoxon test
Method: A polyethylene tube was inserted to the urethra of the 7 week-old rats (SPF: male Crj, Charles River Japan, Inc), and 0.4 mL of 5% mustard oil (diluted with liquid paraffin including 20% allyl isothiocyanate) was infused into the bladder. 60 minutes later, after withdrawing the liquid in the bladder with suctioning, the inside of the bladder was rinsed with saline. For 10 days including 3 days before the infusion of the mustard oil and 7 days after the infusion of the mustard oil, the compound (1) (100 mg/kg/day) was orally administered once a day (Compound (1) administered rat: n=6). Furthermore, as a control, mustard oil infusion rats (cystitis rat: n=6) to which the compound (1) was not administered were prepared. On the 8th day after the infusion of the mustard, the bladders were removed to prepare paraffin sections, the degrees of fibrosis were scored by Azan stain, and the evaluations were conducted. For the index of the scoring, those that have no abnormalities to the normal tissues being “1,” those that have minor fibrosis being “2,” those that have mild fibrosis being “3,” those that have moderate fibrosis being “4,” and those that have severe fibrosis being “5” were used. As a result, although the score of the control group was 2.6±0.1, the compound (1) administered group was 2.0±0.2, and a significant difference was confirmed (p<0.01: Wilcoxon test).

## O=C(Nc1cc(C(F)(F)F)ccc1C(F)(F)F)c1cc(Br)ccc1O [(3)]
[1]
  IC50: 83 nM
[2]; Compound Concentration: 1 μM
  Inhibition Ratio (PAI-1): >90%

## C[C@@H]1C[C@@H]([C@H](O)CC2CC(=O)NC(=O)C2)C(=O)[C@@H](C)C1 [cycloheximide]
[3]
  PAI-1 gene expression induced by PMA: inhibiting substance

## O=C(Nc1cc(C(F)(F)F)cc(C(F)(F)F)c1)c1cc(Cl)ccc1O [(2)]
[1]
  IC50: 5 nM
[2]; Compound Concentration: 0.1 μM
  Inhibition Ratio (PAI-1): 94.8%
[2]; Compound Concentration: 1 μM
  Inhibition Ratio (PAI-1): >90%
[2]; Homo sapiens, TGF-β1 1 ng/mL, 24 hours
  IC50: ~50 nM

## CC(=O)Oc1ccc(Cl)cc1C(=O)Nc1cc(C(F)(F)F)cc(C(F)(F)F)c1 [(32)]
[2]; Compound Concentration: 1 μM
  Inhibition Ratio (PAI-1): >90%

## O=C(Nc1cc(C(F)(F)F)cc(C(F)(F)F)c1)c1cc(Cl)ccc1OC(=O)N1CCOCC1 [Compound (1)]
PAI-1 [4]
  concentration of PAI-1 in blood: decreased
PAI-1 [5]; compound (1) 100 mg administered group
  total number of the infiltrating cells versus normal group: at the same level
PAI-1 [5]; oral once a day for 25 days, FIG. 3
  ratio of PAI-1 expression cells to the total number of infiltrating cells in the lung: decreased; also recorded: improved to the level of the normal group
[6]; 10 mg/kg
  Fibrosis ratio: 5.5 ± 0.4%
[6]; 30 mg/kg
  Fibrosis ratio: 4.9 ± 0.4%
[6]; 100 mg/kg
  Fibrosis ratio: 4.3 ± 0.5%
[7]
  fibrosis score (1 no abnormalities to 5 severe fibrosis): 2.0±0.2

## CC(C)c1cccc(NC(=O)c2cc(Cl)ccc2O)c1 [(81)]
[2]; Compound Concentration: 1 μM
  Inhibition Ratio (PAI-1): 40.0%

## O=C(Nc1cc(C(F)(F)F)cc(C(F)(F)F)c1)c1c(O)cccc1O [(55)]
[2]; Compound Concentration: 1 μM
  Inhibition Ratio (PAI-1): >90%

## CC(C)(C)c1ccc(NC(=O)c2cc(Cl)ccc2O)cc1 [(72)]
[2]; Compound Concentration: 1 μM
  Inhibition Ratio (PAI-1): 71.4%

## O=C(Nc1ccc(Cl)cc1Cl)c1cc(Cl)ccc1O [(71)]
[2]; Compound Concentration: 1 μM
  Inhibition Ratio (PAI-1): >90%

## O=C(Nc1cc(C(F)(F)F)cc(C(F)(F)F)c1)c1ccc(Cl)cc1O [(33)]
[2]; Compound Concentration: 0.1 μM
  Inhibition Ratio (PAI-1): 63.3%
[2]; Compound Concentration: 1 μM
  Inhibition Ratio (PAI-1): >90%

## CCCCCCOc1cccc(NC(=O)c2cc(Cl)ccc2O)c1 [(95)]
[2]; Compound Concentration: 1 μM
  Inhibition Ratio (PAI-1): 60.1%

## O=C(Nc1cc(C(F)(F)F)cc(C(F)(F)F)c1)c1ccccc1O [(4)]
[2]; Compound Concentration: 1 μM
  Inhibition Ratio (PAI-1): >90%

## O=C(Nc1cc(F)cc(F)c1)c1cc(Br)ccc1O [(46)]
[2]; Compound Concentration: 1 μM
  Inhibition Ratio (PAI-1): >90%
